Key:
Assay type in all cases: cell-based, human
RPMI-8226 = assay: NCI60 one-dose screen, RPMI-8226; conditions: RPMI-8226 (Leukemia); NCI 60 one-dose, 10^-5 M
Method: (§1) Anti-cancer activity screening of all compounds was performed by the NCI Developmental Therapeutics Program (DTP) through their NCI60 screening initiative. Assay details can be found at the website dtp.cancer.gov/discovery_development/nci-60/methodology.htm. Information from this website is reproduced here for convenience.
(§2) As of early 2007 all compounds submitted to the NCI 60 Cell screen are tested initially at a single high dose (10^-5 M) in the full NCI 60 cell panel. Only compounds which satisfy pre-determined threshold inhibition criteria in a minimum number of cell lines will progress to the full 5-dose assay. The threshold inhibition criteria for progression to the 5-dose screen was selected to efficiently capture compounds with anti-proliferative activity based on careful analysis of historical DTP screening data. The threshold criteria may be updated as additional data becomes available.
(§3) The One-dose data will be reported as a mean graph of the percent growth of treated cells and will be similar in appearance to mean graphs from the 5-dose assay. […]
(§4) Following drug addition, the plates are incubated for an additional 48 h at 37° C., 5% CO2, 95% air, and 100% relative humidity. […] Bound stain is subsequently solubilized with 10 mM trizma base, and the absorbance is read on an automated plate reader at a wavelength of 515 nm. […]

A549/ATCC = assay: NCI60 one-dose screen, A549; conditions: A549/ATCC (Non-Small Cell Lung Cancer); NCI 60 one-dose, 10^-5 M
Method: as §1, §2
The One-dose data will be reported as a mean graph of the percent growth of treated cells and will be similar in appearance to mean graphs from the 5-dose assay. The number reported for the One-dose assay is growth relative to the no-drug control, and relative to the time zero number of cells. This allows detection of both growth inhibition (values between 0 and 100) and lethality (values less than 0). This is the same as for the 5-dose assay, described below. For example, a value of 100 means no growth inhibition. A value of 40 would mean 60% growth inhibition. A value of 0 means no net growth over the course of the experiment. A value of −40 would mean 40% lethality. A value of −100 means all cells are dead. Information from the One-dose mean graph is available for COMPARE analysis.
The human tumor cell lines of the cancer screening panel are grown in RPMI 1640 medium containing 5% fetal bovine serum and 2 mM L-glutamine. For a typical screening experiment, cells are inoculated into 96 well microtiter plates in 100 μL at plating densities ranging from 5,000 to 40,000 cells/well depending on the doubling time of individual cell lines. After cell inoculation, the microtiter plates are incubated at 37° C., 5% CO2, 95% air and 100% relative humidity for 24 h prior to addition of experimental drugs.
After 24 h, two plates of each cell line are fixed in situ with TCA, to represent a measurement of the cell population for each cell line at the time of drug addition (Tz). Experimental drugs are solubilized in dimethyl sulfoxide at 400-fold the desired final maximum test concentration and stored frozen prior to use. At the time of drug addition, an aliquot of frozen concentrate is thawed and diluted to twice the desired final maximum test concentration with complete medium containing 50 μg/ml gentamicin. Additional four, 10-fold or ½ log serial dilutions are made to provide a total of five drug concentrations plus control. Aliquots of 100 μl of these different drug dilutions are added to the appropriate microtiter wells already containing 100 μl of medium, resulting in the required final drug concentrations.
Following drug addition, the plates are incubated for an additional 48 h at 37° C., 5% CO2, 95% air, and 100% relative humidity. For adherent cells, the assay is terminated by the addition of cold TCA. Cells are fixed in situ by the gentle addition of 50 μl of cold 50% (w/v) TCA (final concentration, 10% TCA) and incubated for 60 minutes at 4° C. The supernatant is discarded, and the plates are washed five times with tap water and air dried. Sulforhodamine B (SRB) solution (100 μl) at 0.4% (w/v) in 1% acetic acid is added to each well, and plates are incubated for 10 minutes at room temperature. After staining, unbound dye is removed by washing five times with 1% acetic acid and the plates are air dried. Bound stain is subsequently solubilized with 10 mM trizma base, and the absorbance is read on an automated plate reader at a wavelength of 515 nm. […]

HOP-62 = assay: NCI60 one-dose screen, HOP-62; conditions: HOP-62 (Non-Small Cell Lung Cancer); NCI 60 one-dose, 10^-5 M
Method: as §1, §2, §3, §4

NCI-H23 = assay: NCI60 one-dose screen, NCI-H23; conditions: NCI-H23 (Non-Small Cell Lung Cancer); NCI 60 one-dose, 10^-5 M
Method: as §1, §2, §3, §4

NCI-H460 = assay: NCI60 one-dose screen, NCI-H460; conditions: NCI-H460 (Non-Small Cell Lung Cancer); NCI 60 one-dose, 10^-5 M
Method: as §1, §2, §3, §4

COLO 205 = assay: NCI60 one-dose screen, COLO 205; conditions: COLO 205 (Colon Cancer); NCI 60 one-dose, 10^-5 M
Method: as §1, §2, §3, §4

HCT-15 = assay: NCI60 one-dose screen, HCT-15; conditions: HCT-15 (Colon Cancer); NCI 60 one-dose, 10^-5 M
Method: as §1, §2, §3, §4

KM12 = assay: NCI60 one-dose screen, KM12; conditions: KM12 (Colon Cancer); NCI 60 one-dose, 10^-5 M
Method: as §1, §2, §3, §4

SW-620 = assay: NCI60 one-dose screen, SW-620; conditions: SW-620 (Colon Cancer); NCI 60 one-dose, 10^-5 M
Method: as §1, §2, §3, §4

U251 = assay: NCI60 one-dose screen, U251; conditions: U251 (CNS Cancer); NCI 60 one-dose, 10^-5 M
Method: as §1, §2, §3, §4

IGROV1 = assay: NCI60 one-dose screen, IGROV1; conditions: IGROV1 (Ovarian Cancer); NCI 60 one-dose, 10^-5 M
Method: as §1, §2, §3, §4

OVCAR-8 = assay: NCI60 one-dose screen, OVCAR-8; conditions: OVCAR-8 (Ovarian Cancer); NCI 60 one-dose, 10^-5 M
Method: as §1, §2, §3, §4

SK-OV-3 = assay: NCI60 one-dose screen, SK-OV-3; conditions: SK-OV-3 (Ovarian Cancer); NCI 60 one-dose, 10^-5 M
Method: as §1, §2, §3, §4

786-0 = assay: NCI60 one-dose screen, 786-0; conditions: 786-0 (Renal Cancer); NCI 60 one-dose, 10^-5 M
Method: as §1, §2, §3, §4

RXF 393 = assay: NCI60 one-dose screen, RXF 393; conditions: RXF 393 (Renal Cancer); NCI 60 one-dose, 10^-5 M
Method: as §1, §2, §3, §4

SN12C = assay: NCI60 one-dose screen, SN12C; conditions: SN12C (Renal Cancer); NCI 60 one-dose, 10^-5 M
Method: as §1, §2, §3, §4

TK-10 = assay: NCI60 one-dose screen, TK-10; conditions: TK-10 (Renal Cancer); NCI 60 one-dose, 10^-5 M
Method: as §1, §2, §3, §4

MDA-MB-468 = assay: NCI60 one-dose screen, MDA-MB-468; conditions: MDA-MB-468 (Breast Cancer); NCI 60 one-dose, 10^-5 M
Method: as §1, §2, §3, §4

Structure (SMILES) | Growth Percent (RPMI-8226) | Growth Percent (A549/ATCC) | Growth Percent (HOP-62) | Growth Percent (NCI-H23) | Growth Percent (NCI-H460) | Growth Percent (COLO 205) | Growth Percent (HCT-15) | Growth Percent (KM12) | Growth Percent (SW-620) | Growth Percent (U251) | Growth Percent (IGROV1) | Growth Percent (OVCAR-8) | Growth Percent (SK-OV-3) | Growth Percent (786-0) | Growth Percent (RXF 393) | Growth Percent (SN12C) | Growth Percent (TK-10) | Growth Percent (MDA-MB-468)
CC(=O)N1c2ccccc2NC2=C(C(=O)N(C)C2(C)C)C1c1ccccc1 (stereo not drawn) [NUCC-60872] | 12.61% | 80.32% | 61.59% | 50.21% | 21.87% | 14.23% | 93.83% | 19.79% | 24.24% | 18.07% | 39.64% | 65.84% | 55.42% | 80.09% | 27.79% | 40.74% | 87.08% | 19.19%
CC(=O)N1c2ccccc2NC2=C(C(=O)N(Cc3ccccc3)C2(C)C)C1c1ccco1 (stereo not drawn) [NUCC-608455] | 23.43% | 22.02% | 33.09% | 20.85% | 4.83% | 16.77% | 15.65% | 14.83% | 21.68% | 24.64% | 26.78% | 26.13% | 22.71% | 21.45% | −11.72% | 35.91% | 54.92% | −1.86%
